In PubChem BioAssay AID1963867 (Molecular Pharmacology Branch, DTP, NCI, 2024):

Test system: KRAS-mutant PDC tumor spheroid with HUVEC/MSC, viability
Test: Anticancer human tumor 327498-153-R-J2-PDC patient-derived uterine carcinosarcoma cell line growth inhibition [KRAS2]
Conditions: for IC50: curve of first compound; for viability, T/C: stronger effect = lower value
Outline: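 KRAS-mutant tumor cells were grown as spheroids with HUVEC endothelial cells and human MSCs as stroma. Targeted agents were tested alone and with KRAS pathway inhibitors. Doses started at or near clinical Cmax, or 10 microM, descending half-log.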

[1] = second compound 0.1 µM, first compound 0.0316 µM
[2] = second compound 0.1 µM, first compound 0.1 µM
[3] = second compound 0.1 µM, first compound 0.316 µM
[4] = second compound 0.1 µM, first compound 1 µM
[5] = second compound 0.1 µM, first compound 3.16 µM
[6] = second compound 0.1 µM, first compound 10 µM
[7] = second compound 0.316 µM, first compound 0.0316 µM
[8] = second compound 0.316 µM, first compound 0.1 µM
[9] = second compound 0.316 µM, first compound 0.316 µM
[10] = second compound 0.316 µM, first compound 1 µM
[11] = second compound 0.316 µM, first compound 3.16 µM
[12] = second compound 0.316 µM, first compound 10 µM
[13] = second compound 1 µM, first compound 0.0316 µM
[14] = second compound 1 µM, first compound 0.1 µM
[15] = second compound 1 µM, first compound 0.316 µM
[16] = second compound 1 µM, first compound 1 µM
[17] = second compound 1 µM, first compound 3.16 µM
[18] = second compound 1 µM, first compound 10 µM
[19] = second compound 3.16 µM, first compound 0.0316 µM
[20] = second compound 3.16 µM, first compound 0.1 µM
[21] = second compound 3.16 µM, first compound 0.316 µM
[22] = second compound 3.16 µM, first compound 1 µM
[23] = second compound 3.16 µM, first compound 3.16 µM
[24] = second compound 3.16 µM, first compound 10 µM
[25] = second compound 10 µM, first compound 0.0316 µM
[26] = second compound 10 µM, first compound 0.1 µM
[27] = second compound 10 µM, first compound 0.316 µM
[28] = second compound 10 µM, first compound 1 µM
[29] = second compound 10 µM, first compound 3.16 µM
[30] = second compound 10 µM, first compound 10 µM
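Also: spheroids exposed to agents for seven days before reading.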
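For viability, T/C in this document: 100% = DMSO vehicle wells so lower means fewer viable cells.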

CCNC(=O)CC1N=C(c2ccc(Cl)cc2)c2cc(OC)ccc2-n2c(C)nnc21 (stereo not given) + CNCc1ccccc1-c1csc(C(C)Nc2nc(C)nc3cc(OC)c(OC)cc23)c1
IC50 (second compound 0.1 µM): 1390 nM | IC50 (second compound 0.316 µM): 478 nM | IC50 (second compound 1 µM): 382 nM | IC50 (second compound 3.16 µM): < 31.6 nM | IC50 (second compound 10 µM): < 31.6 nM | viability, T/C [1]: 88% | viability, T/C [2]: 76.8% | viability, T/C [3]: 59% | viability, T/C [4]: 55.8% | viability, T/C [5]: 43.4% | viability, T/C [6]: 34% | viability, T/C [7]: 69.5% | viability, T/C [8]: 69.6% | viability, T/C [9]: 53.4% | viability, T/C [10]: 41% | viability, T/C [11]: 36.3% | viability, T/C [12]: 29.8% | viability, T/C [13]: 77.6% | viability, T/C [14]: 64% | viability, T/C [15]: 52.6% | viability, T/C [16]: 40.3% | viability, T/C [17]: 33.1% | viability, T/C [18]: 28% | viability, T/C [19]: 1.88% | viability, T/C [20]: 1.54% | viability, T/C [21]: 0.18% | viability, T/C [22]: 1.98% | viability, T/C [23]: 0.12% | viability, T/C [24]: 0.21% | viability, T/C [25]: 1.35% | viability, T/C [26]: 1.7% | viability, T/C [27]: 0.26% | viability, T/C [28]: 0.21% | viability, T/C [29]: 0.2% | viability, T/C [30]: 0.28%

CC(=O)Nc1cccc(-n2c(=O)n(C3CC3)c(=O)c3c(Nc4ccc(I)cc4F)n(C)c(=O)c(C)c32)c1 + CNCc1ccccc1-c1csc(C(C)Nc2nc(C)nc3cc(OC)c(OC)cc23)c1
IC50 (second compound 0.1 µM): 4.34 nM | IC50 (second compound 0.316 µM): 4.68 nM | IC50 (second compound 1 µM): 2.35 nM | IC50 (second compound 3.16 µM): < 0.1 nM | IC50 (second compound 10 µM): < 0.1 nM | viability, T/C (second compound 0.1 µM, first compound 0.0001 µM): 84% | viability, T/C (second compound 0.1 µM, first compound 0.000316 µM): 67% | viability, T/C (second compound 0.1 µM, first compound 0.001 µM): 61.8% | viability, T/C (second compound 0.1 µM, first compound 0.00316 µM): 56.1% | viability, T/C (second compound 0.1 µM, first compound 0.01 µM): 43.9% | viability, T/C [1]: 29.6% | viability, T/C (second compound 0.316 µM, first compound 0.0001 µM): 71.6% | viability, T/C (second compound 0.316 µM, first compound 0.000316 µM): 67.8% | viability, T/C (second compound 0.316 µM, first compound 0.001 µM): 58.4% | viability, T/C (second compound 0.316 µM, first compound 0.00316 µM): 51.3% | viability, T/C (second compound 0.316 µM, first compound 0.01 µM): 48.5% | viability, T/C [7]: 27% | viability, T/C (second compound 1 µM, first compound 0.0001 µM): 70.9% | viability, T/C (second compound 1 µM, first compound 0.000316 µM): 60.8% | viability, T/C (second compound 1 µM, first compound 0.001 µM): 53.9% | viability, T/C (second compound 1 µM, first compound 0.00316 µM): 49.3% | viability, T/C (second compound 1 µM, first compound 0.01 µM): 41.9% | viability, T/C [13]: 23.6% | viability, T/C (second compound 3.16 µM, first compound 0.0001 µM): 37.2% | viability, T/C (second compound 3.16 µM, first compound 0.000316 µM): 38.7% | viability, T/C (second compound 3.16 µM, first compound 0.001 µM): 22.7% | viability, T/C (second compound 3.16 µM, first compound 0.00316 µM): 0.12% | viability, T/C (second compound 3.16 µM, first compound 0.01 µM): 5.68% | viability, T/C [19]: 2.54% | viability, T/C (second compound 10 µM, first compound 0.0001 µM): 0.18% | viability, T/C (second compound 10 µM, first compound 0.000316 µM): 0.87% | viability, T/C (second compound 10 µM, first compound 0.001 µM): 0.14% | viability, T/C (second compound 10 µM, first compound 0.00316 µM): 0.14% | viability, T/C (second compound 10 µM, first compound 0.01 µM): 0.15% | viability, T/C [25]: 0.21%

Cn1nccc1Nc1nccc(-c2cc3c(s2)C(C)(C)N(CCN2CCOCC2)C3=O)n1 + CNCc1ccccc1-c1csc(C(C)Nc2nc(C)nc3cc(OC)c(OC)cc23)c1
IC50 (second compound 0.1 µM): 1640 nM | IC50 (second compound 0.316 µM): 1170 nM | IC50 (second compound 1 µM): 1030 nM | IC50 (second compound 3.16 µM): < 31.6 nM | IC50 (second compound 10 µM): < 31.6 nM | viability, T/C [1]: 73.9% | viability, T/C [2]: 76.8% | viability, T/C [3]: 64% | viability, T/C [4]: 55.7% | viability, T/C [5]: 43.5% | viability, T/C [6]: 35.9% | viability, T/C [7]: 77.7% | viability, T/C [8]: 62.6% | viability, T/C [9]: 64.6% | viability, T/C [10]: 50.2% | viability, T/C [11]: 42.2% | viability, T/C [12]: 32.5% | viability, T/C [13]: 62% | viability, T/C [14]: 62% | viability, T/C [15]: 58.6% | viability, T/C [16]: 48.2% | viability, T/C [17]: 41.3% | viability, T/C [18]: 34.1% | viability, T/C [19]: 0.13% | viability, T/C [20]: 0.11% | viability, T/C [21]: 0.1% | viability, T/C [22]: 2.37% | viability, T/C [23]: 0.1% | viability, T/C [24]: 0.18% | viability, T/C [25]: 0.14% | viability, T/C [26]: 0.68% | viability, T/C [27]: 0.13% | viability, T/C [28]: 0.38% | viability, T/C [29]: 0.22% | viability, T/C [30]: 0.23%

COc1cc(Nc2ncc3c(n2)-c2ccc(Cl)cc2C(c2c(F)cccc2OC)=NC3)ccc1C(=O)O + COc1cc2nc(C)nc(NC(C)c3cc(N)cc(C(F)(F)F)c3)c2cc1OC1CCOC1
IC50 (second compound 0.1 µM): < 31.6 nM | IC50 (second compound 0.316 µM): < 31.6 nM | IC50 (second compound 1 µM): < 31.6 nM | IC50 (second compound 3.16 µM): < 31.6 nM | IC50 (second compound 10 µM): < 31.6 nM | viability, T/C [1]: 17.7% | viability, T/C [2]: 12.6% | viability, T/C [3]: 9.32% | viability, T/C [4]: 9.41% | viability, T/C [5]: 13.8% | viability, T/C [6]: 12.8% | viability, T/C [7]: 16.1% | viability, T/C [8]: 11.8% | viability, T/C [9]: 12.2% | viability, T/C [10]: 9.86% | viability, T/C [11]: 12.5% | viability, T/C [12]: 12.2% | viability, T/C [13]: 13.3% | viability, T/C [14]: 10.3% | viability, T/C [15]: 13.1% | viability, T/C [16]: 10.5% | viability, T/C [17]: 11.7% | viability, T/C [18]: 11.5% | viability, T/C [19]: 13.1% | viability, T/C [20]: 10.9% | viability, T/C [21]: 9.78% | viability, T/C [22]: 9.93% | viability, T/C [23]: 10.5% | viability, T/C [24]: 10.5% | viability, T/C [25]: 8.09% | viability, T/C [26]: 8.45% | viability, T/C [27]: 5.81% | viability, T/C [28]: 4.52% | viability, T/C [29]: 8.87% | viability, T/C [30]: 4.93%
